Reference: patent US12343400B2, “Brain tumor-targeting peptide and application thereof” (priority 2018, dated 2025)
Where a SMILES comes first, the peptide text is derived from it. Bridges are numbered along the chain shown (N, C = ends). Where no end group is shown, it is not given here. The star is where a group is joined. Paclitaxel(2'-O-succinyl) = CC(=O)O[C@H]1C(=O)[C@@]2(C)[C@H]([C@H](OC(=O)c3ccccc3)[C@]3(O)C[C@H](OC(=O)[C@H](OC(=O)CCC(=O)*)[C@@H](NC(=O)c4ccccc4)c4ccccc4)C(C)=C1C3(C)C)[C@]1(OC(C)=O)CO[C@@H]1C[C@@H]2O

Key:
[1] = system: u87 brain glioma; assay: Enrichment of fluorescent short peptides in brain and tumor of u87 brain glioma model mice; assay type: in vivo, nude mice
Experimental: u87 brain glioma cells were cultivated. When the cells grew to a sufficient amount, the cells were taken, 8-weeks old nude mice were selected, the brains were located, and 5× 10^5 cells were injected at the location for brain tumorigenesis. U87 tumorigenesis cell line is a cell line with luciferase gene transferred, and the mouse imager can be used to observe the tumorigenesis effect in real time.
After tumorigenesis of the tumor model mice became stable, 100 μl of solution of short peptides labeled with fluorescent molecules was injected into the tail veins. A short peptide Angiopep 2, which was from the Angiochem company and was reported in an article to be able to cross the blood-brain barrier, was selected as a reference control. It is currently reported that this short peptide has excellent applications in crossing the blood-brain barrier and targeting brain tumors. The negative control was fluorescent molecule cy5.5 of the same amount of fluorescence equivalent. After the tail vein injection, the small animal in vivo imaging system IVIS was used to check the brain fluorescence. 100 μl of 5 mg/ml luciferase reaction substrate was injected into the intraperitoneal cavity. After 5 minutes, the small animal imaging system was used to check the brain tumors.
The brains of the mice were taken and the fluorescence of the brains was compared.

[2] = system: U87 brain tumors; details: mouse, in vivo
Experimental: Cyanine5.5 NHS ester labeling reagent of the Lumiprobe brand was used to fluorescently label each short peptide, and each short peptide was labeled with one fluorescent molecule. […] The fluorescence intensity per unit area was calculated for the brain tumor site and other brain sites respectively, and the enrichment factor of the corresponding polypeptide at the tumor site can be obtained by dividing the fluorescence intensity per unit area at the brain tumor site by the fluorescence intensity per unit area at other brain sites.

[3] = system: U87MG brain glioma; assay: Survival time of brain glioma model mice; assay type: in vivo, nude mice; details: tail vein, equal dose
Experimental: On the first day, 10^6 U87MG cells were inoculated at the right caudate nucleus of nude mice of 6-8 weeks old. Three days later, a solvent or equal dose of paclitaxel or PBL001 was administered via the tail vein, and the survival time of each group of mice was recorded, as shown in FIG. 13.

With TFYGGRPKRNNFLRGIRSRGD [Pb001] the “brain fluorescence intensity relative to fluorescently labeled reference peptide Angiopep2” value ([1]; brain glioma model mice (FIG. 6)) was 1.2 times, the “fluorescence accumulation in the brain tumor site” value ([1]; brain glioma model mice (FIG. 7)) was “obvious fluorescence accumulation” and the “brain enrichment amount compared with fluorescently labeled reference peptide Angiopep2” value ([1]; brain glioma model mice, tail vein injection, after perfusion (FIG. 5)) was “better than that of the fluorescently labeled reference peptide Angiopep2”.
`CC[C@H](C)[C@H](NC(=O)CNC(=O)[C@H](CCCNC(=N)N)NC(=O)[C@H](CC(C)C)NC(=O)[C@H](Cc1ccccc1)NC(=O)[C@H](CC(N)=O)NC(=O)[C@H](CC(N)=O)NC(=O)[C@H](CCCNC(=N)N)NC(=O)[C@H](CCCCN)NC(=O)[C@@H]1CCCN1C(=O)[C@H](CCCNC(=N)N)NC(=O)CNC(=O)CNC(=O)[C@H](Cc1ccc(O)cc1)NC(=O)[C@H](Cc1ccccc1)NC(=O)[C@@H](N)[C@@H](C)O)C(=O)N[C@@H](CCCNC(=N)N)C(=O)N[C@H]1CSSC[C@@H](C(=O)O)NC(=O)[C@H](CC(=O)O)NC(=O)[C@@H]2CCCN2C(=O)CNC(=O)[C@H](CCCCN)NC(=O)[C@H](CC(=O)O)NC(=O)CNC(=O)[C@H](CCCNC(=N)N)NC1=O` [SEQ ID NO:8] (H-TFYGGRPKRNNFLRGIRCRGDKGPDC-OH; disulfide 18-26; N-terminus and C-terminus assumed) was tested, and the “tumor enrichment (enrichment factor tumor site / other brain sites) compared to SEQ ID NO:2 peptide” value [2] was “not as significant as the other three synthesized polypeptides”.
`CC[C@H](C)[C@H](NC(=O)CNC(=O)[C@H](CCCNC(=N)N)NC(=O)[C@H](CC(C)C)NC(=O)[C@H](Cc1ccccc1)NC(=O)[C@H](CC(N)=O)NC(=O)[C@H](CC(N)=O)NC(=O)[C@H](CCCNC(=N)N)NC(=O)[C@H](CCCCNC(=O)CCC(=O)O[C@@H](C(=O)O[C@H]1C[C@@]2(O)[C@@H](OC(=O)c3ccccc3)[C@@H]3[C@]4(OC(C)=O)CO[C@@H]4C[C@H](O)[C@@]3(C)C(=O)[C@H](OC(C)=O)C(=C1C)C2(C)C)[C@@H](NC(=O)c1ccccc1)c1ccccc1)NC(=O)[C@@H]1CCCN1C(=O)[C@H](CCCNC(=N)N)NC(=O)CNC(=O)CNC(=O)[C@H](Cc1ccc(O)cc1)NC(=O)[C@H](Cc1ccccc1)NC(=O)[C@@H](NC(=O)CCC(=O)O[C@@H](C(=O)O[C@H]1C[C@@]2(O)[C@@H](OC(=O)c3ccccc3)[C@@H]3[C@]4(OC(C)=O)CO[C@@H]4C[C@H](O)[C@@]3(C)C(=O)[C@H](OC(C)=O)C(=C1C)C2(C)C)[C@@H](NC(=O)c1ccccc1)c1ccccc1)[C@@H](C)O)C(=O)N[C@@H](CCCNC(=N)N)C(=O)N[C@@H](CO)C(=O)N[C@@H](CCCNC(=N)N)C(=O)NCC(=O)N[C@@H](CC(=O)O)C(=O)O` [PBL001] ({Paclitaxel(2'-O-succinyl)}-TFYGGRPK(Paclitaxel(2'-O-succinyl))RNNFLRGIRSRGD-OH) was tested, and the “toxic and side effects compared with paclitaxel” value [3] was “lower toxic and side effects”.
